Results reported in patent publication US20230146455A1, “TREATMENT OF INFLAMMATORY DISEASES WITH PEPTIDES AND PHARMACEUTICAL COMPOSITIONS” (Yuyu Pharma, Inc., priority 2020, published 2023).
“And” between values parts separate entries of the source, which are not always exact repeats. Identical values can stand only once. Where a SMILES comes first, the peptide text is derived from it. [ ]: non-standard residue; d: D form. Hyp = O=C(O)[C@@H]1C[C@@H](O)CN1

System: IL-4
Assay: Example 9 Luminex, LPS hPBMCs: IL-4
Type: cell-based, human
Method: Treatment Human PBMCs were pretreated with YY-101, YDE-011 and YDE-043 or reference compound; Xiidra® at various concentration (ranging from 1 nM to 100 uM) for 2 h before stimulation. An equal volume of 0.5% DMSO was used as a vehicle control. Then, the cells were treated with LPS at 5 ug/ml. The supernatants from treated cells were harvested at 24 h and placed in a 96 well for Luminex cytokine & chemokine profiling using a Luminex 200 multiplex assay (Luminex; R&D system, USA).
The main study arm with triplicate wells per group in a 24-well plate: • 1. Blank • 2. PBMC: 0.5% DMSO • 3. PBMC+LPS (5 ug/ml) • 4. PBMC+YY-101 100 uM • 5. PBMC+YY-101 10 uM • 6. PBMC+YY-101 1 uM • 7. PBMC+YY-101 0.1 uM • 8. PBMC+YY-101 0.01 uM • 9. PBMC+LPS (5 ug/ml)+Xiidra®100 uM • 10. PBMC+LPS (5 ug/ml)+Xiidra® 10 uM • 11. PBMC+LPS (5 ug/ml)+Xiidra® 1 uM • 12. PBMC+LPS (5 ug/ml)+Xiidra®0.1 uM • 13. PBMC+LPS (5 ug/ml)+Xiidra®0.01 uM • 14. PBMC+LPS (5 ug/ml)+Xiidra®0.001 uM • 15. PBMC+LPS (5 ug/ml)+YY-101 100 uM • 16. PBMC+LPS (5 ug/ml)+YY-101 10 uM • 17. PBMC+LPS (5 ug/ml)+YY-101 1 uM • 18. PBMC+LPS (5 ug/ml)+YY-101 0.1 uM • 19. PBMC+LPS (5 ug/ml)+YY-101 0.01 uM • 20. PBMC+LPS (5 ug/ml)+YY-101 0.001 uM • 21. PBMC+LPS (5 ug/ml)+YDE-011 100 uM • 22. PBMC+LPS (5 ug/ml)+YDE-011 10 uM • 23. PBMC+LPS (5 ug/ml)+YDE-011 1 uM • 24. PBMC+LPS (5 ug/ml)+YDE-011 0.1 uM • 25. PBMC+LPS (5 ug/ml)+YDE-011 0.01 uM • 26. PBMC+LPS (5 ug/ml)+YDE-011 0.001 uM • 27. PBMC+LPS (5 ug/ml)+YDE-043 100 uM • 28. PBMC+LPS (5 ug/ml)+YDE-043 10 uM • 29. PBMC+LPS (5 ug/ml)+YDE-043 1 uM • 30. PBMC+LPS (5 ug/ml)+YDE-043 0.1 uM • 31. PBMC+LPS (5 ug/ml)+YDE-043 0.01 uM • 32. PBMC+LPS (5 ug/ml)+YDE-043 0.001 uM
Multiplex assay was used to measure 30 cytokines and chemokines. The 1:2, 1:10 and 1:200 diluted cell supernatant and serial dilution of the standard were dispensed into a 96 well plate at 50 ul/well. Then, the pre-mixed cocktail of antibody-coated magnetic beads was dispensed at 50 ul/well and incubated at room temperature for 2 h in a horizontal orbital microplate shaker at 800±500 rpm. The beads were washed using a magnetic device to prevent loss. The biotin-antibody was dispensed in 50 ul of each well and incubated at room temperature for 1 h in a shaker at 800±500 rpm. After washing, streptavidin-PE was added at 50 ul/well and incubated at room temperature for 30 min in a shaker under the same conditions. Finally, after washing, wash buffer (100 ul/well) was added to the plate and incubated in a shaker for 2 min. The Luminex™ 200 setting were set according to the manufacturer's protocol. The data was calculated with a standard five-parameter logistic nonlinear regression analysis of the data (xPonent software 4.2, USA). The levels of cytokine/chemokine are normalized to the live cell counts (1×10^5 cells/mL) and presented as concentrations per mL (pg/mL or ng/mL).

[1] = PBMC + LPS(5 ug/ml) + test article 0.001 uM, Mean
[2] = PBMC + LPS(5 ug/ml) + test article 0.001 uM, single replicates
[3] = PBMC + LPS(5 ug/ml) + test article 0.01 uM, Mean
[4] = PBMC + LPS(5 ug/ml) + test article 0.01 uM, single replicates
[5] = PBMC + LPS(5 ug/ml) + test article 0.1 uM, Mean
[6] = PBMC + LPS(5 ug/ml) + test article 0.1 uM, single replicates
[7] = PBMC + LPS(5 ug/ml) + test article 1 uM, Mean
[8] = PBMC + LPS(5 ug/ml) + test article 1 uM, single replicates
[9] = PBMC + LPS(5 ug/ml) + test article 10 uM, Mean
[10] = PBMC + LPS(5 ug/ml) + test article 10 uM, single replicates
[11] = PBMC + LPS(5 ug/ml) + test article 100 uM, Mean
[12] = PBMC + LPS(5 ug/ml) + test article 100 uM, single replicates

Compound | Concentration, Bead name: IL-4 [1] [pg/mL] | MFI, Bead name: IL-4 [1] | conc/live cell, Bead name: IL-4 [1] [pg/10^5] | Concentration, Bead name: IL-4 [2] | MFI, Bead name: IL-4 [2] | conc/live cell, Bead name: IL-4 [2] | Concentration, Bead name: IL-4 [3] [pg/mL] | MFI, Bead name: IL-4 [3] | conc/live cell, Bead name: IL-4 [3] [pg/10^5] | Concentration, Bead name: IL-4 [4] | MFI, Bead name: IL-4 [4] | conc/live cell, Bead name: IL-4 [4] | Concentration, Bead name: IL-4 [5] [pg/mL] | MFI, Bead name: IL-4 [5] | conc/live cell, Bead name: IL-4 [5] [pg/10^5] | Concentration, Bead name: IL-4 [6] | MFI, Bead name: IL-4 [6] | conc/live cell, Bead name: IL-4 [6] | Concentration, Bead name: IL-4 [7] [pg/mL] | MFI, Bead name: IL-4 [7] | other results
CC(C)C[C@H](NC(=O)CNC(=O)[C@H](CC(C)C)NC(=O)[C@H](CCC(N)=O)NC(=O)CNC(=O)[C@@H]1C[C@@H](O)CN1)C(=O)N[C@@H](C)C(=O)NCC(=O)N1CCC[C@H]1C(=O)N[C@@H](CCCCN)C(=O)O [YDE-011] (H-[Hyp]GQLGLAGPK-OH) | 13.2 | −0.5 | 2.6 | 18.4 pg/mL and 7.7 pg/mL and 13.6 pg/mL | 0.0 and −1.0 and −0.5 | 4.1 pg/10^5 and 1.3 pg/10^5 and 2.3 pg/10^5 | 23.7 | 0.7 | 4.1 | 18.4 pg/ml and 26.4 pg/ml (2×) | 0.0 and 1.0 (2×) | 2.9 pg/10^5 and 4.3 pg/10^5 and 5.2 pg/10^5 | 22.4 | −0.3 | 2.5 | 18.4 pg/mL and 26.4 pg/mL | 0.0 and −2.0 and 1.0 | 2.8 pg/10^5 and 0.0 pg/10^5 and 4.6 pg/10^5 | 18.4 | −0.5 | conc/live cell, Bead name: IL-4 [7]: 2.4 pg/10^5; Concentration, Bead name: IL-4 [8]: 18.4 pg/mL; MFI, Bead name: IL-4 [8]: 0.0 (2×) and −1.5; conc/live cell, Bead name: IL-4 [8]: 3.3 pg/10^5 and 0.0 pg/10^5 and 3.8 pg/10^5; Concentration, Bead name: IL-4 [9]: 16.8 pg/mL; MFI, Bead name: IL-4 [9]: −0.2; conc/live cell, Bead name: IL-4 [9]: 3.2 pg/10^5; Concentration, Bead name: IL-4 [10]: 18.4 pg/ml (2×) and 13.6 pg/ml; MFI, Bead name: IL-4 [10]: 0.0 (2×) and −0.5; conc/live cell, Bead name: IL-4 [10]: 3.4 pg/10^5 and 2.3 pg/10^5 and 3.9 pg/10^5; Concentration, Bead name: IL-4 [11]: 7.7 pg/mL; MFI, Bead name: IL-4 [11]: −1.2; conc/live cell, Bead name: IL-4 [11]: 0.8 pg/10^5; Concentration, Bead name: IL-4 [12]: 7.7 pg/mL; MFI, Bead name: IL-4 [12]: −1.0 (2×) and −1.5; conc/live cell, Bead name: IL-4 [12]: 1.3 pg/10^5 (2×) and 0.0 pg/10^5
CC(C)C[C@H](NC(=O)[C@H](CCC(N)=O)NC(=O)CNC(=O)[C@@H]1C[C@@H](O)CN1)C(=O)NCC(=O)O [YDE-043] (H-[Hyp]GQLG-OH; N-terminus and C-terminus assumed) | 26.0 | 1.0 | 5.2 | 26.4 pg/mL and 33.2 pg/mL and 18.4 pg/mL | 1.0 and 2.0 and 0.0 | 6.0 pg/10^5 and 5.5 pg/10^5 and 4.0 pg/10^5 | 11.3 | −0.7 | 2.2 | 7.7 pg/ml (2×) and 18.4 pg/ml | −1.0 (2×) and 0.0 | 1.7 pg/10^5 and 1.2 pg/10^5 and 3.7 pg/10^5 | 17.5 | 0.0 | 3.3 | 26.4 pg/mL and 18.4 pg/mL and 7.7 pg/mL | 1.0 and 0.0 and −1.0 | 5.3 pg/10^5 and 3.3 pg/10^5 and 1.4 pg/10^5 | 26.4 | 0.2 | conc/live cell, Bead name: IL-4 [7]: 3.5 pg/10^5; Concentration, Bead name: IL-4 [8]: 26.4 pg/mL; MFI, Bead name: IL-4 [8]: −1.5 and 1.0 (2×); conc/live cell, Bead name: IL-4 [8]: 0.0 pg/10^5 and 5.5 pg/10^5 and 5.0 pg/10^5; Concentration, Bead name: IL-4 [9]: 14.8 pg/mL; MFI, Bead name: IL-4 [9]: −0.3; conc/live cell, Bead name: IL-4 [9]: 2.7 pg/10^5; Concentration, Bead name: IL-4 [10]: 18.4 pg/ml (2×) and 7.7 pg/ml; MFI, Bead name: IL-4 [10]: 0.0 (2×) and −1.0; conc/live cell, Bead name: IL-4 [10]: 3.5 pg/10^5 and 1.4 pg/10^5 and 3.3 pg/10^5; Concentration, Bead name: IL-4 [11]: 7.7 pg/mL; MFI, Bead name: IL-4 [11]: −1.0; conc/live cell, Bead name: IL-4 [11]: 1.2 pg/10^5; Concentration, Bead name: IL-4 [12]: 7.7 pg/mL; MFI, Bead name: IL-4 [12]: −1.0; conc/live cell, Bead name: IL-4 [12]: 1.2 pg/10^5
